Measurements as given in PMC12128024, “Copper(II) Cyclopeptides with High ROS-Mediated Cytotoxicity” (Bioconjugate Chemistry, 2025).
Like-named read-outs stand apart in the source and are kept apart here. *1 amine or outer side, *2 acyl side, *3 side chain or, on linkers, in order; H or OH if unused. Where a SMILES comes first, the peptide text is derived from it. [ ]: non-standard residue; d: D form. X1 = O=C(c1ccc(-c2ccc(N[*:1])cn2)nc1)[*:2]; βAla = NCCC(=O)O

Experiments:
SF-268 (human glioma) = details: 72 h
Description: (§1) IC50 is the concentration at which 50% growth inhibition is obtained and E max represents the efficacy of the compound at its maximum concentration, expressed as the maximum % cell inhibition achieved by the compound (see Section S6 and Figure S8 of the Supporting Information).
(§2) General method: cell lines and grown conditions
(§3) Non-small lung carcinoma NCI-H460, human colon carcinoma HCT-116, human glioma SF-268
(§4) and doxorubicin-resistance human mamma carcinoma NCI/ADR-RES cell lines, as well as
(§5) Eagle’s Minimal Essential Medium (EMEM) and RPMI1640 were purchased from the American Tissue Culture Collection (ATCC). Frozen cells were thawed in a 75 cm2 cell culture flask in RPMI
(§6) supplemented with 2 mM L-glutamine and 10% FBS and maintained at 37 °C in a 5% CO2
(§7) The inhibition of cell proliferation induced by the samples [1/Cu(II), 1 eq. cyclopeptide 1/3 eq. of
(§8) Cu(II); 2/Cu(II), 1 eq. cyclopeptide 2/5 eq. of Cu(II)]‚ was carried out by using MTT method for
(§9) HCT-116, NCI/ADR-RES and NCI-H460 cell lines. SF-268 cell growth inhibition induced by the
(§10) samples was assessed using a system based on crystal violet cell staining and subsequent
(§11) acetylation. Cells were seeded in a 96-well microplate (5000 cells/well for HCT-116, 10000
(§12) cells/well for SF-268 and 15000 cells/well for NCI/ADR-RES and NCI-H460 cell lines) in 100 μl
(§13) of growth medium and maintained at 37 °C for 24 h.
(§14) Then growth medium was replaced by fresh medium containing different concentrations of the
(§15) samples to be assayed and maintained at 37 °C in a 5% CO2 atmosphere for 48 h. After this
(§16) time, 10 μL MTT (5 mg/ml in PBS) were added to each well and maintained for 4 h at 37 °C in a
(§17) 5% CO2 atmosphere. Then 100 μL of 10% SDS in 0.01 M HCl were added to each well an
(§18) incubated for 12-14 h under the same experimental conditions. Absorbance due to formation
(§19) was detected in a Tecan infinity M1000 Pro reader using a wavelength of 595 nm. All assays
were performed with triplicate points.
b) Crystal violet cell staining
(§20) The samples dissolved in water were added, maintaining the same proportion of water in each
(§21) well (10%). After 72 h (at 37°C and in an atmosphere of 5% CO 2/95% air), the cells were fixed to
(§22) the plate with 10 μL of 11% glutaraldehyde solution, kept under agitation at room temperature,
(§23) for 15 minutes. Once fixed, the medium was removed and the cells were washed 3-4 times with
(§24) distilled water, followed by staining of the cells with 100 μL of a 0.1% crystal violet solution. This
(§25) solution was prepared by diluting 0.1g of crystal violet in 100 mL of buffer composed of 200 mM
(§26) phosphoric acid, 200 mM formic acid and 200 mM 2-(N-morpholino)-ethane sulphonic acid
(§27) (MES) at pH 6. The plate was kept shaking at room temperature for 15 minutes. The dye was
(§28) removed, washed 3-4 times with distilled water and dried. 100 μL of 10% acetic acid was then
(§29) added and kept under agitation for 15 minutes, at room temperature, so that the staining was
(§30) homogeneous in all wells. Finally, an absorbance reading of the plates was performed at a
(§31) wavelength of 595 nm (Tecan M1000 Infinite Pro). The assay was performed with triplicate points.
(§32) Data were expressed as the growth inhibition percentage calculated in basis on the equation: %
(§33) inhibition= 100 – [(AO × 100) / AT]. Where AT is the measured absorbance in wells containing
(§34) compounds and AO is the absorbance measured in blank wells (cells with medium and vehicle).
(§35) The inhibitory potency of compounds was calculated by constructing concentration-% growth
(§36) inhibition curves, and extrapolating IC50 values (concentration of compound that inhibits cells

[1] = system: NCI-H460 (lung carcinoma); details: 48 h
Description: as §1, §2, §3, §4, §5, §6, §7, §8, §9, §10, §11, §12, §13, §14, §15, §16, §17, §18, §19
were performed with triplicate points.
b) Crystal violet cell staining
as §20, §21, §22, §23, §24, §25, §26, §27, §28, §29, §30, §31, §32, §33, §34, §35, §36

[2] = Fluorescence titration of cyclopeptides with Cu(II) ions (DynaFit fit); format: binding; details: 2 μM cyclopeptide, 1 mM phosphate buffer, 10 mM NaCl, pH 6.5; 1: 1:2 model (cyclopeptide:metal); 2: simplified model with 1:1 and 2:1 species; read-out: global dissociation constant K D
Description: While the 2,2′-bipyridine ligand is known to be weakly emissive and for all practical purposes considered nonfluorescent, , the 5′-amido-[2,2′-bipyridine]-5-carboxamide unit in the βAlaBpy building block is highly emissive, displaying an intense emission band at c.a. 410 nm with a quantum yield of 0.37. Furthermore, the fluorescence of the βAlaBpy units is quenched upon coordination to a wide range of divalent transition metal ions. We exploited this property to monitor the coordinative properties of cyclopeptides 1 and 2 in the presence of labile Cu(II) ions in aqueous media. Thus, we measured the emission spectra of 2 μM solutions of the cyclopeptides 1 and 2 in 1 mM phosphate buffer and 10 mM NaCl, pH 6.5, upon excitation at 308 nm in the presence of increasing concentrations of Cu(II) ions. […] Therefore, the affinity of the first part of the titrations cannot be determined with this experiment as it is too strong. […]
5.2. Fluorescence titration experiments
Luminescence experiments were made with a Varian Cary Eclipse Fluorescence spectrophotometer coupled to a Cary Single Cell Peltier accessory (Agilent Technologies) temperature controller. […]
emission spectrum was recorded (λex= 308 nm; λem= 410 nm) after each addition. […]

NCI/ADR-RES cells [3] = experiment: ICP-MS internalization study (intracellular Cu accumulation); format: cell-based; details: 1 µM compound, 48 h, metallopeptides 1 eq. cyclopeptide + 1 eq. Cu(II)
Description: To evaluate the ability of the Cu(II) metallopeptide systems to internalize in cancer cells, ICP-MS studies were performed in NCI/ADR-RES cells after 48 h of incubation with cyclopeptides 1 and 2, as well as their corresponding 1/Cu(II) and 2/Cu(II) metallopeptide derivatives formed by mixing each cyclopeptide with 1 equiv Cu(II), and using CuCl2·2H2O both as a Cu(II) source and a control.
7.1. General methods and materials
ICP Measurements were conducted employing an Agilent 7900 ICP-MS system (Agilent Technologies, Tokyo, Japan). The sample introduction system was comprised of an autosampler, a double-pass spray chamber with Peltier system, a glass concentric nebulizer (MicroMist low-flow nebulizer, Glass Expansion, West Melbourne, Australia), and a quartz torch.
Quantification of copper concentrations was achieved using Agilent ICP-MS MassHunter 5.1, (Version D.01.01 Agilent Technologies, Tokyo, Japan). The parameters for the ICP-MS device were as follows: RF Power, 1550 W; Sample Depth, 8; Carrier Gas, 1.1 L/min; Nebulizer Pump […]
Roswell Park Memorial Institute 1640 medium (RPMI), fetal bovine serum (FBS), penicillin, and streptomycin were purchased from Invitrogen Thermo Fisher.
Ovarian tumour NCI/ADR-RES cells, obtained from the European Collection of Authenticated Cell Cultures (ECACC), were cultured at 37 °C in a 5% CO2 atmosphere in RPMI medium containing 10% FBS and supplemented with 50 U/mL penicillin and 50 U/mL streptomycin, in 75 cm2 cell culture flasks. All cell experiments were performed at 37 °C in a 5% CO 2 atmosphere with this modified RPMI, referred as “medium” or “culture medium”.
7.3. […]
The culture medium was then replaced with 3 mL of fresh medium containing 1 µM of the compound [Cu(II) (CuCl₂·2H₂O), cyclopeptide ( 1 or 2), or metallopeptide system [1/Cu(II) or 2/Cu(II); 1 eq. cyclopeptide + 1 eq. […] Lysates were digested at 95 °C overnight, diluted with 1% HNO₃ to a final volume of 5 mL, and analyzed by ICP-MS. The Cu(II) content in the culture medium (3 mL) was also measured using the same technique, yielding a value of 41.46 ng. […]

[4] = system: nontransformed lung fibroblast (MRC-5)
Description: as §1, §2, §3, §4, §5, §6, §7, §8, §9, §10, §11, §12, §13, §14, §15, §16, §17, §18, §19
were performed with triplicate points.
b) Crystal violet cell staining
as §20, §21, §22, §23, §24, §25, §26, §27, §28, §29, §30, §31, §32, §33, §34, §35, §36

[5] = system: NCI/ADR-RES (doxorubicin resistant ovarian carcinoma); details: 48 h
Description: as §1, §2, §3, §4, §5, §6, §7, §8, §9, §10, §11, §12, §13, §14, §15, §16, §17, §18, §19
were performed with triplicate points.
b) Crystal violet cell staining
as §20, §21, §22, §23, §24, §25, §26, §27, §28, §29, §30, §31, §32, §33, §34, §35, §36

[6] = system: HCT-116 (colon carcinoma); details: 48 h
Description: as §1, §2, §3, §4, §5, §6, §7, §8, §9, §10, §11, §12, §13, §14, §15, §16, §17, §18, §19
were performed with triplicate points.
b) Crystal violet cell staining
as §20, §21, §22, §23, §24, §25, §26, §27, §28, §29, §30, §31, §32, §33, §34, §35, §36

NCI/ADR-RES cells [7] = experiment: Intracellular ROS generation (ROS Assay Stain 1X); format: cell-based; details: 100 μM compound with 125 μM H2O2, 1-5 h and 24 h, 1/Cu(II) equimolar
Description: Measurement of intracellular ROS levels in NCI/ADR-RES cells treated with Cu(II) ions, cyclopeptide 1, or the 1/Cu(II) metallopeptide system confirmed a time-dependent increase in the level of ROS generation. In short, after 24 h of incubation, cells were stained with ROS Assay Stain 1× and treated with 100 μM Cu(II) (CuCl2·2H2O), cyclopeptide 1, or 1/Cu(II), along with 125 μM H2O2, and fluorescence was recorded (λex = 495/λem = 520 nm) every hour for the first 5 h and again at 24 h. The experiment with the metallopeptide system was conducted by using equimolar amounts of cyclopeptide 1 and Cu(II) to prevent an excess of free copper in the medium. […] The cytotoxicity of the metallopeptide systems appears to be closely linked to their ability to enhance intracellular oxidative stress via increased ROS production, likely driven by Cu(II) accumulation within the cells.
9.2. […]
NCI/ADR-RES cells were seeded in a 96 well plate (Thermo Scientific 165305) at a density of 2,5 x 10^5 cells/ml. […] The fluorescence was measured in a microplate reader every hour for the first 5 hours, and again at 24 hours after the addition of the compounds (λex= 495 nm / λem= 520 nm). […]
Figure S15. […] Fluorescence (λex= 495 nm / λem= 520 nm) was recorded every hour for the first 5 hours, and again at 24 hours after the addition of the compounds to assess intracellular ROS generation. […]

[8] = SF-268, crystal violet, 1/Cu(II) 3 equiv Cu(II), 2/Cu(II) 5 equiv Cu(II)
[9] = SF-268, crystal violet, at maximum concentration
[10] = NCI-H460, MTT, 1/Cu(II) 3 equiv Cu(II), 2/Cu(II) 5 equiv Cu(II)
[11] = NCI-H460, MTT, at maximum concentration
[12] = MRC-5, 48 h, 1/Cu(II) 3 equiv Cu(II), 2/Cu(II) 5 equiv Cu(II)
[13] = MRC-5, 48 h, at maximum concentration
[14] = NCI/ADR-RES, MTT, 1/Cu(II) 3 equiv Cu(II), 2/Cu(II) 5 equiv Cu(II)
[15] = NCI/ADR-RES, MTT, at maximum concentration
[16] = HCT-116, MTT, 1/Cu(II) 3 equiv Cu(II), 2/Cu(II) 5 equiv Cu(II)
[17] = HCT-116, MTT, at maximum concentration

Row | Compound | intracellular Cu(II) accumulation (ICP-MS) (NCI/ADR-RES cells [3]) | IC50 (SF-268 (human glioma); [8]) [µM] | E max (maximum % cell inhibition) (SF-268 (human glioma); [9]) [%] | IC50 [1, 10] [µM] | E max (maximum % cell inhibition) [1, 11] [%] | IC50 [4, 12] [µM] | E max (maximum % cell inhibition) [4, 13] [%] | IC50 [5, 14] [µM] | E max (maximum % cell inhibition) [5, 15] [%] | IC50 [6, 16] [µM] | E max (maximum % cell inhibition) [6, 17] [%] | other results
1 | N=C(N)NCCC[C@@H]1NC(=O)c2ccc(nc2)-c2ccc(cn2)NC(=O)CCNC(=O)[C@H](CCCNC(=N)N)NC(=O)[C@H](CCCNC(=N)N)NC(=O)[C@H](CCCNC(=N)N)NC(=O)c2ccc(nc2)-c2ccc(cn2)NC(=O)CCNC(=O)[C@H](CCCNC(=N)N)NC(=O)[C@H](CCCNC(=N)N)NC(=O)[C@H](CCCNC(=N)N)NC(=O)c2ccc(nc2)-c2ccc(cn2)NC(=O)CCNC(=O)[C@H](CCCNC(=N)N)NC(=O)[C@H](CCCNC(=N)N)NC1=O [compound 2, cyclo-(βAlaBpy-Arg3)3] (cyclo(RRR[βAla][X1]RRR[βAla][X1]RRR[βAla][X1])) | notably lower than that of the metallopeptide systems |  |  |  |  |  |  |  |  |  |  | E max (maximum % cell inhibition) (SF-268 (human glioma)): 92 ± 1%; IC50 (SF-268 (human glioma)): 16 ± 1 µM; E max (maximum % cell inhibition) [1]: 92 ± 1%; IC50 [1]: 21 ± 1 µM; Kd [2]: 0.24 ± 0.1 µM; E max (maximum % cell inhibition) ([4]; 48 h): 92 ± 1%; IC50 ([4]; 48 h): 18 ± 1 µM; E max (maximum % cell inhibition) [5]: 86 ± 1%; IC50 [5]: 28 ± 1 µM; E max (maximum % cell inhibition) [6]: 80 ± 1%; IC50 [6]: > 100 µM
2 | N.N.[Cl][Pt][Cl] [cisplatin, reference compound] |  | 3.89 ± 0.08 | 92 ± 1 | 5.29 ± 0.46 | 62 ± 4 | 5.7 ± 0.22 | 92 ± 1 | 13 ± 1 | 86 ± 1 | 13 ± 1 | 94 ± 1 | 
3 | O.O.[Cl][Cu][Cl] [CuCl2·2H2O, reference compound] | modest increase in intracellular copper | > 100 | 87 ± 1 | > 100 | 97 ± 1 | 79 ± 3 | 91 ± 1 | 99 ± 1 | 91 ± 1 | > 100 | 94 ± 1 | intracellular ROS levels (fluorescence) (NCI/ADR-RES cells [7]): moderate effect
